Like-named read-outs stand apart in the source and are kept apart here.
Molecular target: T1, TGase MTG P2 (Streptomyces mobaraensis, UniProt P81453)
T1 construct: made in house; host or cells: E. coli
Assay type: biochemical, Streptovercilium mobaraense
Procedure: TGase: • (a) TGase Activa WM from Ajinomoto, 60 mg/ml in 20 mM Phosphate buffer pH 8.5. The Activa WM enzyme from Streptoverticillium mobaraense is formulated under dry form in maltodextrins and contains 1% w/w of protein) (6.7 μl)); or • (b) TGase MTG P2 from Streptovercilium mobaraense expressed in soluble form using E. coli as expression system was formulated in 20 mM NaPhosphate buffer, pH 6.0, with 2 mM DTT and 5 w/v % maltodextrin. The concentration of the enzyme was between 0.7 and 4.5 mg/ml.
Capillary electrophoresis (CE) was carried out using an Agilent Technologies 3D-CE system (Agilent Technologies). Data acquisition and signal processing were performed using Agilent Technologies 3DCE ChemStation. The capillary was a 64.5 cm (56.0 cm efficient length) 50 μm i.d. “Extended Light Path Capillary” from Agilent. UV detection was performed at 200 nm (16 nm Bw, Reference 380 nm and 50 nm Bw). The running electrolyte was phosphate buffer 50 mM pH7.0. The capillary was conditioned with 0.1M NaOH for 3 min, then with Milli-Q water for 2 min and with the electrolyte for 3 min.
After each run, the capillary was flushed with milli-Q water for 2 min, then with phosphoric acid for 2 min, and with milli-Q water for 2 min. The hydrodynamic injection was done at 50 mbar for 4.0 s. The voltage was +25 kV. The capillary temperature was 30 C and the runtime was 10.5 min.
To a 1M solution of […] in triethanolamine 20 mM pH8.6 buffer (14 μl) was added triethanolamine 20 mM pH8.6 buffer (20.6 μl), ethylene glycol (53.6 μl) (40% w/v)), and a solution of human growth hormone (50 mg/ml) in triethanolamine 20 mM pH8.6 buffer (40 μl). The reaction was started by the addition of the TGase MTG P2 solution (0.35 mg/ml, 5.8 μl). The reaction mixture was incubated at ambient temperature and followed on CE.
(§1) The reaction was carried out in an analogous manner to the above method using the following concentrations: • [hGH]=0.67 mM (14.9 mg/ml final concentration) • [1,3-diamino 2-propanol]=300 mM • Buffer: 20 mM Triethanolamine pH 8.6 • +/−Ethylene glycol 40% (v/v) • [TGase MTG P2]=0.39 μM
The reaction was carried out in an analogous manner to the above method using the following concentrations: • [hGH]=0.67 mM (14.9 mg/ml final concentration) • [1,3-diamino 2-propanol]=300 mM • Buffer: 20 mM Triethanolamine pH 8.6 • +/−Ethylene glycol 10-40% (v/v) • [TGase MTG P2]=0.39 μM
The reaction was carried out in an analogous manner to the above method using the following concentrations: • [hGH]=0.67 mM (14.9 mg/ml final concentration) • [1,3-diamino 2-propanol]=300 mM • Buffer: 20 mM Triethanolamine pH 8.6 • +/−Ethylene glycol 40% (v/v) • [TGase MTG P2]=0.39 μM or 0.16 μM
as §1, with “out with ethylene glycol, glycerol, propylene glycol and 1,3 propanediol” for “out”, “+/−enhancing compound 7.18 M” for “+/−Ethylene glycol 40% (v/v)”
The reaction was carried out with glycerol in an analogous manner to the above method, except for the fact that more enzyme was added after five hours of reaction time. The reaction used the following concentrations: • [hGH]=0.67 mM (14.9 mg/ml final concentration) • [1,3-diamino 2-propanol]=300 mM • Buffer: 20 mM Triethanolamine pH 8.6 • Glycerol 7.18 M • [TGase MTG P2]=0.39 μM then 1.17 μM at 5 hours

[1] = enhancing compound 7.18 M, TGase MTG P2 0.39 μM, FIG. 7

T1 sequence (P81453 77-407): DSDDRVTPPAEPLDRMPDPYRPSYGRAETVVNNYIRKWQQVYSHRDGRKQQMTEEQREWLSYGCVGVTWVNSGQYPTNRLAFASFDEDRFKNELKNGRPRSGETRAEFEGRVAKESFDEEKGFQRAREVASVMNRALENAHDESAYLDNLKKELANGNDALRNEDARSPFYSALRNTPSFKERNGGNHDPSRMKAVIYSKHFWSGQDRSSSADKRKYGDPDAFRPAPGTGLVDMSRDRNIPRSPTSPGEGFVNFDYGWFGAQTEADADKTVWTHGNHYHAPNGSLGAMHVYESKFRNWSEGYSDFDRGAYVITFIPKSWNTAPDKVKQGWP

OCC(O)CO [Glycerol, glycerol]
selectivity of the reaction: improved the selectivity of the reaction | side products (pos.40-TA-hGH and di-transaminated hGH) formed [1]: reduce the amount of side products | yield when more enzyme is added (glycerol 7.18 M, TGase MTG P2 0.39 μM then 1.17 μM at 5 hours, FIG. 8): can be increased

OCCO [ethylene glycol]
product yield, varying enzyme concentration: highest product yield | yield of pos.141 TA-hGH with rising ethylene glycol concentration: increased yield | yield, comparison of compounds of related structures: highest yield | maximum yield of the desired pos.141-hGH (pH 8.6): 75%

CC(O)CO (stereo not drawn) [Propylene glycol, propylene glycol]
yield, comparison of compounds of related structures [1]: next highest yield

OCCCO [1,3 propanediol, reference compound]
effect on the enzyme reaction (1,3 propanediol 7.18 M, TGase MTG P2 0.39 μM, FIG. 7): completely inhibited the reaction

Reference: patent US20100009917A1, “Modulating Enzymatic Processes by Addition of Diolcontaining Substances” (priority 2007, published 2010)
